Measurements: ChEMBL document CHEMBL5126531, “NAE modulators: A potential therapy for gastric carcinoma” (Eur J Med Chem, 2022)
Values belong to the compound of their own block, whether it stands above or below them.

Experiments:
[1] = target: T1, Ubiquitin-like modifier-activating enzyme 1 (Homo sapiens, UniProt P22314); assay: Inhibition of recombinant C-terminal His-tagged human full length UAE1 expressed in Escherichia coli BL21 (lambdaDE3) assessed as reduction in transfer of Ub to UBE2C enzyme
T1 sequence (P22314 whole entry): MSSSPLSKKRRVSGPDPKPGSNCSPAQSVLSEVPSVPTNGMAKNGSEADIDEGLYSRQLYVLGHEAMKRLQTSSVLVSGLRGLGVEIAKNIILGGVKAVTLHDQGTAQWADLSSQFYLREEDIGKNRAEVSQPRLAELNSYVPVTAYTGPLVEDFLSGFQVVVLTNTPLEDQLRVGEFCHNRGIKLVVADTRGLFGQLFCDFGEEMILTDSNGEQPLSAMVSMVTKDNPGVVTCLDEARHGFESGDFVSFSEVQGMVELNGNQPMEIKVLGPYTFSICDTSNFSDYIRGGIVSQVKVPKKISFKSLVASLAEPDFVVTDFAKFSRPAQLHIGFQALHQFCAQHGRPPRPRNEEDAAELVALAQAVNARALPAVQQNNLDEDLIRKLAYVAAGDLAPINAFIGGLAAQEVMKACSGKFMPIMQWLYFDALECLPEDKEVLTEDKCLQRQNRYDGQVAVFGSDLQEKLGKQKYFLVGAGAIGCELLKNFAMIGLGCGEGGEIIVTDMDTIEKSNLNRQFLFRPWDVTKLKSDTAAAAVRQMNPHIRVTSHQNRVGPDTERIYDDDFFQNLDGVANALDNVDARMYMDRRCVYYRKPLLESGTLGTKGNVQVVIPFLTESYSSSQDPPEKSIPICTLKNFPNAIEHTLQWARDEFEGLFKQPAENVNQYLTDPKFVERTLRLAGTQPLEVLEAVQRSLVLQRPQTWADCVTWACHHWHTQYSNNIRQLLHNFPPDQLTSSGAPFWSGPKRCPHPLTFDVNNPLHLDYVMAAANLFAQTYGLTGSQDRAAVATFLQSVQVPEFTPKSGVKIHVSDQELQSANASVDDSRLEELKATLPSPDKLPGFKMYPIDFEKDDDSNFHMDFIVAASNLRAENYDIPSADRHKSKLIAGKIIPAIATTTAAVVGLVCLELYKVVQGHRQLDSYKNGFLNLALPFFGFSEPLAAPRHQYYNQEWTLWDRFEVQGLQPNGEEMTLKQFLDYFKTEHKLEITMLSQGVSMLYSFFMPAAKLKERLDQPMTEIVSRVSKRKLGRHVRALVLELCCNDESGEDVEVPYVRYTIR

CCRF-CEM = assay: Antiproliferative activity against human CCRF-CEM assessed as net growth rate at <1 uM […] by CellTiter-Glo assay relative to control; format: functional
[2] = Toxicity in SCID mouse xenografted with human TMD8 cells expressing luciferase gene assessed as survival days at 100 mg/kg/day, iv administered at 1 to 21 days cycle for 8 cycles; format: organism-based; conditions: in vivo, time 1-21 day
SUMO-activating enzyme [3] = target: T2, SUMO-activating enzyme (Homo sapiens, UniProt Q9UBT2); assay: Inhibition of recombinant human SAE1/UBA2 expressed in Escherichia coli assessed as reduction in transfer of […] to UBE2I enzyme
T2 sequence (Q9UBE0 whole entry): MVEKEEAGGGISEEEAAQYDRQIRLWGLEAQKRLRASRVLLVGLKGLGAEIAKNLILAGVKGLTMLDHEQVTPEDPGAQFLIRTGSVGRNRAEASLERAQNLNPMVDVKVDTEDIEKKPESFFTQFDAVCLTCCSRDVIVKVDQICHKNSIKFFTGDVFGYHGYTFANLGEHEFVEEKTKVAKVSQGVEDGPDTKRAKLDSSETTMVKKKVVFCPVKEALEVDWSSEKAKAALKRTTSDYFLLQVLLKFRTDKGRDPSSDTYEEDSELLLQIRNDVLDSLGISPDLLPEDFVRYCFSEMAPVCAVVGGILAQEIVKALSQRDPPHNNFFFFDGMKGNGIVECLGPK
T2 sequence (Q9UBT2 whole entry): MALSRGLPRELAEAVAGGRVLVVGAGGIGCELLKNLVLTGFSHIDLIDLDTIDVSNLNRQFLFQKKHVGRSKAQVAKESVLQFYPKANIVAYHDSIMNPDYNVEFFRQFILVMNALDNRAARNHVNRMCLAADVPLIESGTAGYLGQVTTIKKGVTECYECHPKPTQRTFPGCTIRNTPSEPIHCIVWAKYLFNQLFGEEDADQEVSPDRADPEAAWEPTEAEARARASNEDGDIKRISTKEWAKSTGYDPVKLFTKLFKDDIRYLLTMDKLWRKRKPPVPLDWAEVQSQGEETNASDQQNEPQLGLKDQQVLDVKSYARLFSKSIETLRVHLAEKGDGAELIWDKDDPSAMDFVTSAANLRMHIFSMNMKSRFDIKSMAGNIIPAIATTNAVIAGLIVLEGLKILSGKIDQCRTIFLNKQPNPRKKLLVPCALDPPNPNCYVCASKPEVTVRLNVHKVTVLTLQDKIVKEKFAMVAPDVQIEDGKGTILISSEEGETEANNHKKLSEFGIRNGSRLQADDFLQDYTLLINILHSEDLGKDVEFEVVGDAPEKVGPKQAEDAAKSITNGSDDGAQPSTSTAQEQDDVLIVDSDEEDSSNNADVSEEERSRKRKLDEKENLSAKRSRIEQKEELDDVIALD

NEDD8 activating enzyme = target: T3, NEDD8 activating enzyme (Homo sapiens, UniProt Q8TBC4); assay: Inhibition of recombinant human APPBP1/UBA3 expressed in Escherichia coli assessed as Ub/Ubl thioester transfer
T3 sequence (Q8TBC4 whole entry): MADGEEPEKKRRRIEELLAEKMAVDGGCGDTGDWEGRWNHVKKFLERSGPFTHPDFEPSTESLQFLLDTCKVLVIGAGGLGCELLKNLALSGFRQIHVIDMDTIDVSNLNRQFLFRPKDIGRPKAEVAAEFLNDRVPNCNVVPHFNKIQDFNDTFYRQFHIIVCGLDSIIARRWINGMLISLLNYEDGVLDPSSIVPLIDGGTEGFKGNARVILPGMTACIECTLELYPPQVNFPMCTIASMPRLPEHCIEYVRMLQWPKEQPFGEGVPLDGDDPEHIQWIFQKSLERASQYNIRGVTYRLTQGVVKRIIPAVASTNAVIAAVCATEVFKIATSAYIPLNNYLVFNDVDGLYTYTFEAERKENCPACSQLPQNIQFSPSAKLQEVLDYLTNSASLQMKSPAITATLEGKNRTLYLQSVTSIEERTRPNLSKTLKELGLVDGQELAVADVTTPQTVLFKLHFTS
T3 sequence (Q13564 whole entry): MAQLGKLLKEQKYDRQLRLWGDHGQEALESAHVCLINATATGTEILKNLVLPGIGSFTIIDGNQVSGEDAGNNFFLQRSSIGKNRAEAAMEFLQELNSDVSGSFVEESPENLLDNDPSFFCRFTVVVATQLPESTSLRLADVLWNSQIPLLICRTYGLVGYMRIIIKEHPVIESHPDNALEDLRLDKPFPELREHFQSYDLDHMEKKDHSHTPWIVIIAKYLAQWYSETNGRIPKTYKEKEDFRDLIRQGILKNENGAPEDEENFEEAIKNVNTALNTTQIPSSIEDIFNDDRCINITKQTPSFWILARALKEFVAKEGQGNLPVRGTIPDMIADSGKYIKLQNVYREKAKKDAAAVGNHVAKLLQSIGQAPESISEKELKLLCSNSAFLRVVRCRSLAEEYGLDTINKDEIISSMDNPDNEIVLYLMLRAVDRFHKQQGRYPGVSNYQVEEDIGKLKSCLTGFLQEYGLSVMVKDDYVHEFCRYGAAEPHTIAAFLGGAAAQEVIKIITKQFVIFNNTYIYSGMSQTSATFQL

[4] = target: T4, NEDD8-activating enzyme E1 regulatory subunit (Homo sapiens, UniProt Q13564); assay: Inhibition of NAE (unknown origin)
T4 sequence (Q13564 whole entry): T3 sequence (Q13564 whole entry)

[5] = target: T1, Ubiquitin-like modifier-activating enzyme 1; assay: Inhibition of UAE (unknown origin)
MGC-803 [6] = assay: Induction of apoptosis in human MGC-803 cells assessed as total apoptotic cells at 1 micromol/L incubated for 48 hrs by Annexin V-FITC/PI staining based flow cytometric analysis (reference value: 3.2%); format: functional; conditions: dose 1 µmol/L, at 1 µM
MGC-803 [7] = assay: Induction of apoptosis in human MGC-803 cells assessed as total apoptotic cells at 2 micromol/L incubated for 48 hrs by Annexin V-FITC/PI staining based flow cytometric analysis (reference value: 3.2%); format: functional; conditions: dose 2 µmol/L, at 2 µM
MGC-803 [8] = assay: Induction of apoptosis in human MGC-803 cells assessed as total apoptotic cells at 0.5 micromol/L incubated for 48 hrs by Annexin V-FITC/PI staining based flow cytometric analysis (reference value: 3.2%); format: functional; conditions: dose 0.5 µmol/L, at 0.5 µM
MGC-803 [9] = assay: Antiproliferative activity against human MGC-803 cells assessed as inhibition of cell growth incubated for 48 hrs by MTT assay; format: functional, cell-based; conditions: MGC-803, 48 h
[10] = target: T5, NEDD8-conjugating enzyme Ubc12 (Homo sapiens, UniProt P61081); assay: Inhibition of Ubc12 (unknown origin)-neddylation incubated for 30 mins in presence of ATP by Western blot analysis
T5 sequence (P61081 whole entry): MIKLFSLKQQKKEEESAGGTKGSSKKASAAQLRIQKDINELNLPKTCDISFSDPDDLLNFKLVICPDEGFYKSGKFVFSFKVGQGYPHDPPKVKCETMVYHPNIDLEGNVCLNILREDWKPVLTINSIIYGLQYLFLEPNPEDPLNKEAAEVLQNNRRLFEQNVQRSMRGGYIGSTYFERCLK

SUMO-activating enzyme [11] = target: T2, SUMO-activating enzyme; assay: Inhibition of SAE1/UBA2 in human HCT-116 cells assessed as reduction in Ubc9-SUMO level incubated for 24 hrs by immunoblot analysis; format: cell-based
[12] = target: T6, Ubiquitin-like modifier-activating enzyme ATG7 (Homo sapiens, UniProt O95352); assay: Inhibition of His-tagged ATG7 (unknown origin) expressed in sf9 insect cells
T6 sequence (O95352 whole entry): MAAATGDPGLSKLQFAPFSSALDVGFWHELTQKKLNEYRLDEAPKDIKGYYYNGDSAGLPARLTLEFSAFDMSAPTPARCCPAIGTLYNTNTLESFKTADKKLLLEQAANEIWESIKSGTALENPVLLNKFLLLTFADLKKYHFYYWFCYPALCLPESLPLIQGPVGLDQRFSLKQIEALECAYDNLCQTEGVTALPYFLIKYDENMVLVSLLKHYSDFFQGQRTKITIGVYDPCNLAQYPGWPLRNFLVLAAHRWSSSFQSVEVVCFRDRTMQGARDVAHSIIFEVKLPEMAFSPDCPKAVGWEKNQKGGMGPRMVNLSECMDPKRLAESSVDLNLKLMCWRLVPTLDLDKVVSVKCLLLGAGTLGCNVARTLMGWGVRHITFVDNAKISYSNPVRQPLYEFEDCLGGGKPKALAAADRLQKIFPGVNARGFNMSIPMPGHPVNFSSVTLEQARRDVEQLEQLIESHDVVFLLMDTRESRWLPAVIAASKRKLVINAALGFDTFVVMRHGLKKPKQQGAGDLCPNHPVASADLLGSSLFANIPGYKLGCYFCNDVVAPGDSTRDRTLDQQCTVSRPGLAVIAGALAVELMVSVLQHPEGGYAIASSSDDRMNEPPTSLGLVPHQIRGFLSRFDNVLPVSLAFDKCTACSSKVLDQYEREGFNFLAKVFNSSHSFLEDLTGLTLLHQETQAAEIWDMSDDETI

[13] = target: T7, Ubiquitin-like modifier-activating enzyme 6 (Homo sapiens, UniProt A0AVT1); assay: Inhibition of His-tagged UBA6 (unknown origin) expressed in sf9 insect cells
T7 sequence (A0AVT1 whole entry): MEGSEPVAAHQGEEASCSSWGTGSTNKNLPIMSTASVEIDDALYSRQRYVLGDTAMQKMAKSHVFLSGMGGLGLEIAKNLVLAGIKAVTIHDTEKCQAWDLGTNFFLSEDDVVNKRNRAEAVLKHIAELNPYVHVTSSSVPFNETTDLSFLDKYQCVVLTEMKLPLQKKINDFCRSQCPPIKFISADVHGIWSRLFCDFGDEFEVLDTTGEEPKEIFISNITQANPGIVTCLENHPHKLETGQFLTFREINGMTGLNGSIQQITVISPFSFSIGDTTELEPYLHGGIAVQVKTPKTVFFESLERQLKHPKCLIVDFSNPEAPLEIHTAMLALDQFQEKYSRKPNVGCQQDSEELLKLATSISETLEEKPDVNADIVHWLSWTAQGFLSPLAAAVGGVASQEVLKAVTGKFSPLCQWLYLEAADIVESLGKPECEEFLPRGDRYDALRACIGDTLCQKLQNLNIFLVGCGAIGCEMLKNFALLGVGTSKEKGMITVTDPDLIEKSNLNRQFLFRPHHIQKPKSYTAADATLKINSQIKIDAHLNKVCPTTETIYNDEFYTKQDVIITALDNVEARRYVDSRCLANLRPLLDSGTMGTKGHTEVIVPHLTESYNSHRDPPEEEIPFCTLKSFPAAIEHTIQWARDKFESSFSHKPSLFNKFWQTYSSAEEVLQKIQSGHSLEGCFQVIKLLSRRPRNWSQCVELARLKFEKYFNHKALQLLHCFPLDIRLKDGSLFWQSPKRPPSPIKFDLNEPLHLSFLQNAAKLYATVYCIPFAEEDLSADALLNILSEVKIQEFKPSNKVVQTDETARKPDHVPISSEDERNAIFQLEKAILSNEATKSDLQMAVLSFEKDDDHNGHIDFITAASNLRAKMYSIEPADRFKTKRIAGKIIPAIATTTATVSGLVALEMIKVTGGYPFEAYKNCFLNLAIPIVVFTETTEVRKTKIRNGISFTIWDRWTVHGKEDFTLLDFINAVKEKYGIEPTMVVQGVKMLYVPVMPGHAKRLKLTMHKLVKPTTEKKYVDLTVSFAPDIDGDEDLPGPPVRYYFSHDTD

Compound: CCOc1cccc(F)c1C#Cc1cn([C@@H]2O[C@H](CNS(N)(=O)=O)[C@@H](O)[C@H]2O)c2ncnc(N)c12
IC50 [1]: 449 nM
Activity (CCRF-CEM): 0%
Survival [2]: > 159 days
IC50 (SUMO-activating enzyme [3]): 1280 nM
IC50 (NEDD8 activating enzyme): 0.955 nM

Compound: COc1ccc(CN(C(=O)Cn2ccc3cc(OC)ccc32)c2cc(OC)c(OC)c(OC)c2)cc1
Activity (MGC-803 [6]): 11.1%
Activity (MGC-803 [7]): 65.2%
Activity (MGC-803 [8]): 4.4%
IC50 (MGC-803 [9]): 1590 nM

Compound: CC(C)=CCc1c(O)c(CC=C(C)C)c2oc3c(O)ccc(O)c3c(=O)c2c1O [GARTANIN]
IC50 [10]: 10300 nM

The next lines start with the values.

IC50 [4]: 0.5 nM
IC50 [5]: 66 nM
Compound: COC(=O)N1CCC2(CC1)C[C@H](Nc1ncnc3c1nnn3[C@@H]1C[C@@H](COS(N)(=O)=O)[C@@H](O)C1)c1ccccc12

IC50 (SUMO-activating enzyme [11]): 8200 nM
IC50 [12]: > 10000 nM
IC50 [13]: 1800 nM
Compound: NS(=O)(=O)OC[C@@H]1C[C@@H](n2ccc3c(N[C@H]4CCc5ccccc54)ncnc32)C[C@@H]1O [PEVONEDISTAT]
